Key:
Assay type in all cases: in vivo
Conditions in all cases: post-emergence spray at 4-5 leaf stage, 250 g/ha active ingredient with 450 kg/ha water, rated after 3 weeks in greenhouse
rice = assay: post-emergence stage experiment, crop (Table 1); parameters: key: Level 10: completely dead; Level 9: above 95% growth control rate; Level 8: above 90% growth control rate; Level 7: above 80% growth control rate; Level 6: above 70% growth control rate; Level 5: above 60% growth control rate; Level 4: above 50% growth control rate; Level 3: above 20% growth control rate; Level 2: 5%-20% growth control rate; Level 1: below 5% growth control rate
Summary of the method: (§1)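 Weed and crop seeds sown in soil-filled pots under 0.5-2 cm soil, greenhouse-grown, then sprayed at 4-5 leaf stage (2-3 weeks after sowing) with compound in acetone/Tween 80/water. Fresh weight growth control rate assessed after 3 weeks in greenhouse.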

wheat = assay: post-emergence stage experiment, crop (Table 1)
Summary of the method: as §1

corn = assay: post-emergence stage experiment, crop (Table 1)
Summary of the method: as §1

foxtail = assay: weed control effect in post-emergence stage (Table 1); parameters: key: Level 10: completely dead; Level 9: above 95% growth control rate; Level 8: above 90% growth control rate; Level 7: above 80% growth control rate; Level 6: above 70% growth control rate; Level 5: above 60% growth control rate; Level 4: above 50% growth control rate; Level 3: above 20% growth control rate; Level 2: 5%-20% growth control rate; Level 1: below 5% growth control rate
Summary of the method: as §1

echinochloa = assay: as above; parameters: key: Level 10: completely dead; Level 9: above 95% growth control rate; Level 8: above 90% growth control rate; Level 7: above 80% growth control rate; Level 6: above 70% growth control rate; Level 5: above 60% growth control rate; Level 4: above 50% growth control rate; Level 3: above 20% growth control rate; Level 2: 5%-20% growth control rate; Level 1: below 5% growth control rate
Summary of the method: as §1

crab grass = assay: as above; parameters: key: Level 10: completely dead; Level 9: above 95% growth control rate; Level 8: above 90% growth control rate; Level 7: above 80% growth control rate; Level 6: above 70% growth control rate; Level 5: above 60% growth control rate; Level 4: above 50% growth control rate; Level 3: above 20% growth control rate; Level 2: 5%-20% growth control rate; Level 1: below 5% growth control rate
Summary of the method: as §1

bidens bipinnata = assay: as above; parameters: key: Level 10: completely dead; Level 9: above 95% growth control rate; Level 8: above 90% growth control rate; Level 7: above 80% growth control rate; Level 6: above 70% growth control rate; Level 5: above 60% growth control rate; Level 4: above 50% growth control rate; Level 3: above 20% growth control rate; Level 2: 5%-20% growth control rate; Level 1: below 5% growth control rate
Summary of the method: as §1

Indian mallow = assay: as above; parameters: key: Level 10: completely dead; Level 9: above 95% growth control rate; Level 8: above 90% growth control rate; Level 7: above 80% growth control rate; Level 6: above 70% growth control rate; Level 5: above 60% growth control rate; Level 4: above 50% growth control rate; Level 3: above 20% growth control rate; Level 2: 5%-20% growth control rate; Level 1: below 5% growth control rate
Summary of the method: as §1

rorippa indica = assay: as above; parameters: key: Level 10: completely dead; Level 9: above 95% growth control rate; Level 8: above 90% growth control rate; Level 7: above 80% growth control rate; Level 6: above 70% growth control rate; Level 5: above 60% growth control rate; Level 4: above 50% growth control rate; Level 3: above 20% growth control rate; Level 2: 5%-20% growth control rate; Level 1: below 5% growth control rate
Summary of the method: as §1

Structure (SMILES)	effect on crop, Rice (level) (rice)	effect on crop, Wheat (level) (wheat)	effect on crop, Corn (level) (corn)	weed control effect, Green foxtail (level) (foxtail)	weed control effect, Echinochloa (level) (echinochloa)	weed control effect, Crab grass (level) (crab grass)	weed control effect, Bidens bipinnata (level) (bidens bipinnata)	weed control effect, Indian mallow (level) (Indian mallow)	weed control effect, Rorippa indica (level) (rorippa indica)
Cn1nc(C2CC2)c(C(=O)c2ccc(C(F)(F)F)c(-n3cccn3)c2Cl)c1O [Compound 073]	8 (Level 8: above 90% growth control rate)	1 (Level 1: below 5% growth control rate)	3 (Level 3: above 20% growth control rate)	10	5 (Level 5: above 60% growth control rate)	5 (Level 5: above 60% growth control rate)	2 (Level 2: 5%-20% growth control rate)	10	7 (Level 7: above 80% growth control rate)
CCOC(=O)Oc1c(C(=O)c2ccc(C(F)(F)F)c(-n3cccn3)c2Cl)c(C)nn1C [Compound 069]	5 (Level 5: above 60% growth control rate)	0	0	10	6 (Level 6: above 70% growth control rate)	3 (Level 3: above 20% growth control rate)	10	10	0
CCOC(=O)Oc1c(C(=O)c2ccc(C(F)(F)F)c(-n3ccc(C)n3)c2Cl)c(C)nn1C [Compound 078]	4 (Level 4: above 50% growth control rate)	0	0	7 (Level 7: above 80% growth control rate)	7 (Level 7: above 80% growth control rate)	4 (Level 4: above 50% growth control rate)	10	10	0
CC(=O)Oc1c(C(=O)c2ccc(C(F)(F)F)c(N3CCCCC3=O)c2Cl)cnn1C [Compound 030]	1 (Level 1: below 5% growth control rate)	4 (Level 4: above 50% growth control rate)	9 (Level 9: above 95% growth control rate)	9 (Level 9: above 95% growth control rate)	5 (Level 5: above 60% growth control rate)	8 (Level 8: above 90% growth control rate)	5 (Level 5: above 60% growth control rate)	6 (Level 6: above 70% growth control rate)	10
CCn1nc(C)c(C(=O)c2ccc(C(F)(F)F)c(N3CCCC3=O)c2Cl)c1OC(=O)c1cn(C)nc1C [Compound 099]	10	4 (Level 4: above 50% growth control rate)	4 (Level 4: above 50% growth control rate)	10	10	10	10	3 (Level 3: above 20% growth control rate)	10
CCc1nn(C)c(OC(=O)c2cn(C)nc2C)c1C(=O)c1ccc(C(F)(F)F)c(N2CCCC2=O)c1Cl [Compound 101]	10	3 (Level 3: above 20% growth control rate)	2 (Level 2: 5%-20% growth control rate)	10	10	4 (Level 4: above 50% growth control rate)	9 (Level 9: above 95% growth control rate)	10	10

Reference: patent US11076594B2, “Pyrazolone compound or salt thereof, preparation method therefor, herbicide composition and use thereof” (QINGDAO KINGAGROOT CHEMICAL COMPOUNDS CO., LTD., priority 2015, dated 2021)
